{
  "source": "paper PMC7614687",
  "about": "“Modulation of the substrate specificity of the kinase PDK1 by distinct conformations of the full-length protein*” (Science signaling, 2023)",
  "key": {"PDK1_50-359": {"target": "T1, PDK1_50-359 (Homo sapiens, UniProt O15530)", "T1 construct": "His (N); made in house; host or cells: insect cells (stated for the crystallography batch)", "T1 sequence (O15530 50-359)": "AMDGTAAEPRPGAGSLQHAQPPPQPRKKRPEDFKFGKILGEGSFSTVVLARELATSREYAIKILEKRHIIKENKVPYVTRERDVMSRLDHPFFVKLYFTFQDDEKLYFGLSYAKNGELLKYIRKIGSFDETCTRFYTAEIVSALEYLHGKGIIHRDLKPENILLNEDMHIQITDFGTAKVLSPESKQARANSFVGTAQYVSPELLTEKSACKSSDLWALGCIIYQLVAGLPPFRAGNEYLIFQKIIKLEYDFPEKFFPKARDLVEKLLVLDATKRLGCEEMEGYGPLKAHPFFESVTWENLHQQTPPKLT", "experiment": "Differential scanning fluorimetry, thermal stability of PDK1_50-359 (catalytic domain)", "format": "binding", "protocol": "The thermal stability of PDK1 was assessed by monitoring the unfolding of PDK1 by the increase in the fluorescence of SYPRO Orange (Invitrogen) using a real-time PCR device (StepOnePlus, Applied Biosystems and BioRad CFX96) following a previously described protocol ([70]). The reactions were performed in a final volume of 10 μl in white 96-well PCR microtiter plates (Greiner) and contained 1 μM PDK1, 10 mM HEPES (pH 7.5), 150 mM NaCl, 1/1000 SYPRO Orange and 1 mM dithiothreitol. For valsartan, the assay buffer was modified to exclude NaCl. PIFtide or compounds (at a final DMSO concentration of 1%) were added to this reaction mixture. The temperature gradient was performed in steps of 0.3 °C in the range from 25 to 70 °C. To calculate the Tm values, data were exported to GraphPad Prism and curves fitted to a Boltzmann sigmoidal equation with an acceptable confidence interval of 95%. Statistical analysis was performed with Infostat software (http://www.infostat.com.ar) and GraphPad Prism by first verifying a normal distribution of pooled residuals (Shapiro-Wilks test) and homogeneity of variance (F test), and then performing a one-way ANOVA followed by the post hoc comparisons test indicated in each figure legend."}, "SNAP-PDK1": {"target": "T2, SNAP-PDK1 (Homo sapiens, UniProt O15530)", "T2 construct": "SNAP-PDK1_50-556 (15 μM, in buffer Tris-HCl 50 mM pH 7.4); His (N); made in house; host or cells: insect cells", "T2 sequence (O15530 50-556)": "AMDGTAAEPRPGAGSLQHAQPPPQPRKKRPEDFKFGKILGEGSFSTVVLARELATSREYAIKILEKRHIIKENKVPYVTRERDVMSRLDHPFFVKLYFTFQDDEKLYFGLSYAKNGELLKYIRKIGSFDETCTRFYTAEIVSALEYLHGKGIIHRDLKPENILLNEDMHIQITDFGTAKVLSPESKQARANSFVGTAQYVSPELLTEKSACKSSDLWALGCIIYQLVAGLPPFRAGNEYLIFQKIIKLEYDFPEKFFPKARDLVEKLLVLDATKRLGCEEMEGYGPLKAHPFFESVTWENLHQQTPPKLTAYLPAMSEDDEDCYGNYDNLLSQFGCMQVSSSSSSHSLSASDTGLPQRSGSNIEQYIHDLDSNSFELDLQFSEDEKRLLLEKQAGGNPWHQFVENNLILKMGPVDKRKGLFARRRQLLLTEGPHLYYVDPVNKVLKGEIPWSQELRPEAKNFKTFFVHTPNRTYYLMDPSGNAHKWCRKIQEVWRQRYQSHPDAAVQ", "experiment": "STORM-based single particle fluorescence of PDK1 monomers and dimers", "conditions": "15 μM HYG8", "protocol": "SNAP-PDK1_50-556 (15 μM, in buffer Tris-HCl 50 mM pH 7.4, 200 mM NaCl, 200 mM imidazole and 1 mM DTT) was incubated with SNAP-Cell TMR-Star substrate (NEB) (30 μM) in the dark at room temperature for 1 h. Labelled SNAP-PDK1 was isolated by gel filtration using a PD MidiTrap G-25 Sephadex Column (GE). 10 μl labelled TMR-SNAP-PDK1 was diluted in buffer 50 mM Tris-HCl 50 mM pH 7.4 containing 100 mM NaCl and 1 mM DTT (control) or in the same buffer containing 15 μM HYG8 in a final volume of 20 μl. […] The slides were analysed using stochastic optical reconstruction microscopy (STORM) technology. Fluorescence from monomers was differentiated from that from dimers by the intensity of the fluorescence signals. […]\nThe STORM microscope used was custom-built around an OlympusIX-73 inverted microscope, as described previously ([96]). A 532 nm 1.5 W laser (Laser Quantum Ventus 532) was used for fluorescence excitation of TMR-Star. […] Images were recorded by an EMCCD camera (Andor iXon3 897). […] After calibration, the parameters selected in the STORM’s software were: shape, two color 120X; view, single; horizontal readout rate, 5.0 MHz; speed, 3.3 μs; clock voltage, normal; frame transfer mode, (select); set exposure time, 100 ms, real exposure time, 100 ms; real accumulation time, 102 ms; effective frame rate, 9.38 Hz; pre amplifier gain 5.1; electron multiplier gain, 30; laser power, 5 mW. […]"}},
  "data": [
    {"smiles": "O=C(O[C@H]1[C@@H](OP(=O)(O)O)[C@H](OP(=O)(O)O)[C@@H](OP(=O)(O)O)[C@H](OP(=O)(O)O)[C@H]1OP(=O)(O)O)c1ccccc1", "note": "[HYG8, 2-O-benzoyl-IP5]", "values": [
      {"measurement": "effect on thermal stability of PDK1_50-359 (catalytic domain)", "setting": "PDK1_50-359", "value": "without affecting"},
      {"measurement": "effect on proportion of PDK1 dimers", "setting": "SNAP-PDK1", "value": "decreased the proportion of PDK1 dimers"}
    ]}
  ]
}
